We go through eleven molecules from patent US6511592B1, “Biosensor for pentachlorophenol” (ISIS Innovation Limited, priority 1998, dated 2003).

The target in assay [1] is T1, PCPH (Sphingobium chlorophenolicum, UniProt P42535). In words: Substrate range of PCPH, oxidation determined by gas chromatography. Format: biochemical, Flavobacterum sp. (ATCC 53874). Details: made in house; host or cells: E. coli strain DH5a (tac promoter vector). From the text:
Samples from the environment contain many other compounds which may be substrates for PCPH and therefore interfere with PCP biosensing. The substrate range of the PCPH enzyme was therefore investigated. The compounds tested as possible substrates were toluene, biphenyl, phenylcyclohexane, 1-phenylcyclohexene, diphenylmethane, bibenzyl and hexadecane, included as a model long-chain alkane.

Assay [2] concerns the target T2, pentachlorophenol hydroxylase (PCPH) (Sphingobium chlorophenolicum, UniProt P42535).
T2 sequence (P42535 2-538): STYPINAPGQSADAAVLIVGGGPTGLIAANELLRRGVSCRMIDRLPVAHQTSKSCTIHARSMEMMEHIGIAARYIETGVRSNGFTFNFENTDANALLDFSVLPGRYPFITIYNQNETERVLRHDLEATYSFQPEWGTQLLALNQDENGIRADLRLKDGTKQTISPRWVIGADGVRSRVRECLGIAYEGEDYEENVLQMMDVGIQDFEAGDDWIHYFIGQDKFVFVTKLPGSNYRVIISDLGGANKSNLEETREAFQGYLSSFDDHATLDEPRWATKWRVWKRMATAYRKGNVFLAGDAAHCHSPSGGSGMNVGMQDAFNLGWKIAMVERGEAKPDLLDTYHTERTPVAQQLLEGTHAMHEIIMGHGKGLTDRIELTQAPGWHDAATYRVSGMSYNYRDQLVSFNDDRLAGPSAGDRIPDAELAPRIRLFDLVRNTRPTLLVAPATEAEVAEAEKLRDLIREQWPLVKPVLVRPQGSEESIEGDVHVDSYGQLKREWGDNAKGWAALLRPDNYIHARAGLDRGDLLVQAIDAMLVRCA
Particulars: earlier investigation of the substrate range (Orser and co-workers); cited from earlier work.

Assay [3] deals with PCPH. To be noted: -800 mV, aerobic, after 30 mins; cyclic voltammetry and gas chromatography of the organic extract.
For assay [4], the target named is T1, PCPH. The assay is described as follows: PCP concentration-dependent catalytic current, immobilised PCPH electrode.

With `C1=C(c2ccccc2)CCCC1` [1-phenylcyclohexene], at PCPH [1], the “oxidised by PCPH (substrate or not)” value was “None of the compounds except bibenzyl was oxidised by PCPH”. For the molecule `Oc1cccc(Cl)c1Cl` [2,3-dichlorophenol], in assay [2], the “substrate of PCPH (oxidised / attacked)” value is reported as “poor substrate”. In the case of `Oc1c(Cl)c(Cl)c(Cl)c(Cl)c1Cl` [PCP, pentachlorophenol], the “product of electrochemically driven oxidation by PCPH” value in the assay on PCPH [3] was “showed the presence of TeCH”. Also, the “substrate of PCPH (oxidised / attacked)” value in assay [2] is reported as “oxidised by PCPH”. In addition, the “linear range of concentration dependence of the catalytic current” value is given as “ca. 8 μM” at PCPH [4] (PCPH 87 μM in the solution evaporated on the electrode, FIG. 1) and “ca. 25 μM” at PCPH [4] (PCPH 196 μM in the solution evaporated on the electrode, FIG. 2). For the molecule `c1ccccc1` [benzene], in assay [2], the “substrate of PCPH (oxidised / attacked)” value was “not substrates”. For the molecule `c1ccc(CCc2ccccc2)cc1` [bibenzyl], on PCPH [1], the “oxidised by PCPH (substrate or not)” value is on record as “a very small amount of product was detected”.

Consider `c1ccc(-c2ccccc2)cc1` [biphenyl], for which the “oxidised by PCPH (substrate or not)” value on PCPH [1] is reported as “None of the compounds except bibenzyl was oxidised by PCPH”.

Take `c1ccc(Cc2ccccc2)cc1` [diphenylmethane]: the “oxidised by PCPH (substrate or not)” value on PCPH [1] is “None of the compounds except bibenzyl was oxidised by PCPH”. Still for that read-out and setting: the result for `CCCCCCCCCCCCCCCC` [hexadecane] reads “None of the compounds except bibenzyl was oxidised by PCPH”. Regarding `Clc1cc(Cl)c(Cl)c(Cl)c1Cl` [pentachlorobenzene], the “substrate of PCPH (oxidised / attacked)” value in assay [2] was “not”. Take `c1ccc(C2CCCCC2)cc1` [phenylcyclohexane]: the “oxidised by PCPH (substrate or not)” value at PCPH [1] is listed as “None of the compounds except bibenzyl was oxidised by PCPH”.

Take `Cc1ccccc1` [toluene]: the “oxidised by PCPH (substrate or not)” value at PCPH [1] is listed as “None of the compounds except bibenzyl was oxidised by PCPH”.
